Values of other authors in patent publication US20180228811A1, “GDNF INDUCTION FOR THE TREATMENT OF RETINAL DISORDERS” (THE SCHEPENS EYE RESEARCH INSTITUTE, INC., priority 2014, published 2018).

Test system: photoreceptors
Conditions: rd10 mouse, systemic treatment (Mitton et al. 2014); cited from earlier work

CCCC(CCC)C(=O)O [VPA, Valproic acid]
photoreceptor rescue, result in words: partial photoreceptor rescue
